In paper PMC12304827 (British Journal of Clinical Pharmacology, 2025):
Read-outs that look alike come from different tables or passages of the source.

Assays:
[1] = OC study 1: EE and LN PK with/without ritlecitinib 200 mg QD; assay type: in vivo, human; details: for AUC(0-t) / Cmax / AUC(0-inf): female, human, plasma, oral, healthy females; for AUC(0-t): AUClast; for AUC(0-inf): AUCinf
[2] = OC study 2: EE and LN PK with/without ritlecitinib 50 mg QD; assay type: in vivo, human; details: for AUC(0-t) / Cmax / AUC(0-inf): female, human, plasma, oral; for Cmax: adjusted geometric mean (test), 1 Portia tablet on Day 10 of ritlecitinib 50 mg QD × 13 days, healthy females
CYP2B6 = biological target: T1, CYP2B6 (Homo sapiens, UniProt P20813); details: for Effect of ritlecitinib on efavirenz AUC0–72 and Cmax (in words): ritlecitinib 200 mg QD
T1 sequence (P20813 1-491): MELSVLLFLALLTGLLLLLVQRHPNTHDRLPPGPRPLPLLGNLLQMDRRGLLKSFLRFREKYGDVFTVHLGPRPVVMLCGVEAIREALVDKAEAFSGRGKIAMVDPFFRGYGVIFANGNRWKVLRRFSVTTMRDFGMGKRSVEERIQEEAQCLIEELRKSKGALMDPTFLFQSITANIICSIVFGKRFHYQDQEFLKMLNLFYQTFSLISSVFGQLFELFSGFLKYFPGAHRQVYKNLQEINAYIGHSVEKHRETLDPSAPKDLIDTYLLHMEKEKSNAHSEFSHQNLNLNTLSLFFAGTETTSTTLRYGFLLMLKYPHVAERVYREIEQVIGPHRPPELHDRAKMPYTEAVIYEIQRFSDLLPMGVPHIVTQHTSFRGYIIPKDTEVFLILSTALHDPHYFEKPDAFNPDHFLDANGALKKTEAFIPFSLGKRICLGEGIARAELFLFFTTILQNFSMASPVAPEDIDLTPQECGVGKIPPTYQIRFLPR

CYP3A [3] = experiment: Midazolam and efavirenz DDI study: midazolam PK with/without ritlecitinib
CYP1A2 [4] = details: cited from earlier work
CYP1A2 [5] = experiment: Caffeine DDI study: caffeine PK with/without ritlecitinib; assay type: in vivo, human; details: from caffeine DDI at ritlecitinib 200 mg QD
CYP3A [6] = experiment: Itraconazole DDI study: ritlecitinib PK with/without itraconazole; assay type: in vivo, human
CYP = experiment: Rifampicin DDI study: ritlecitinib PK with/without rifampicin; assay type: in vivo, human
CYP3A4/5 = experiment: CYP time-dependent inhibition in human liver microsomes; assay type: in vitro ADME
CYP1A2 [7] = biological target: T2, CYP1A2 (Homo sapiens, UniProt P05177); experiment: as above; assay type: in vitro ADME
T2 sequence (P05177 1-516): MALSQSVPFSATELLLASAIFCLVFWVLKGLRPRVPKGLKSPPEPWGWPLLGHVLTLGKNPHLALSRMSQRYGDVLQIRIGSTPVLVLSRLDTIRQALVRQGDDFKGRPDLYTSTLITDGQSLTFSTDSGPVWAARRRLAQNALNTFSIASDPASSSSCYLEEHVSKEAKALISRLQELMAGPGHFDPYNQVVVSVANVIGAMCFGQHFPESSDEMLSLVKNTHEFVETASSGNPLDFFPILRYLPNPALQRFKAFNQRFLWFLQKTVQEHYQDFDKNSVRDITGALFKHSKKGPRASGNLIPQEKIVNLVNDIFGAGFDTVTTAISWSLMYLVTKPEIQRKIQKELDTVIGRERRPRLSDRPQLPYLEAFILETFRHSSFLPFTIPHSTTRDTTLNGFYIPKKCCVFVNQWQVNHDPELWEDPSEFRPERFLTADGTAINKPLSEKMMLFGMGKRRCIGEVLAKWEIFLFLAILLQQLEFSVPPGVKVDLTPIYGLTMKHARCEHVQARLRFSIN

[8] = cited from earlier work
[9] = tested on: organic cation transporter 1 (OCT1); details: cited from earlier work
[10] = cited from earlier work; remark: listed apart in the source
[11] = adjusted geometric mean (reference), 1 Portia tablet (EE 30 μg and LN 150 μg) alone
[12] = adjusted geometric mean (test), 1 Portia tablet (EE 30 μg and LN 150 μg) on Day 10 of ritlecitinib 200 mg QD × 11 days
[13] = efavirenz with ritlecitinib 200 mg QD × 11 days vs without
[14] = efavirenz with ritlecitinib 200 mg QD × 11 days vs without, listed as efavirenz
[15] = midazolam with ritlecitinib 200 mg QD × 11 days vs without
[16] = midazolam with ritlecitinib 200 mg QD × 11 days vs without, listed as midazolam
[17] = caffeine single dose with ritlecitinib 200 mg QD × 9 days, plasma
[18] = caffeine with ritlecitinib 200 mg QD × 9 days vs alone
[19] = caffeine with ritlecitinib 200 mg QD × 9 days vs alone, listed as caffeine
[20] = multiple ritlecitinib 200 mg QD doses
[21] = multiple 200-mg doses of itraconazole, ritlecitinib 30 mg
[22] = ritlecitinib 30 mg with itraconazole 200 mg QD × 5 days vs alone
[23] = ritlecitinib 50 mg with rifampicin 600 mg QD × 8 days vs alone
[24] = ritlecitinib 50 mg with rifampicin 600 mg QD × 8 days vs alone, listed as ritlecitinib

`C#C[C@]1(O)CC[C@H]2[C@@H]3CCC4=CC(=O)CC[C@@H]4[C@H]3CC[C@@]21CC` [LN, levonorgestrel] showed an AUC(0-t) [1, 11] of 23.8 ng·h/mL, an AUC(0-t) [1, 12] of 26.8 ng·h/mL and a Cmax [1, 11] of 2.94 ng/mL. For the same compound, the Cmax [1, 12] was 3.03 ng/mL, the AUC(0-t) ([2]; 50 mg) was 29.6 ng·h/mL and the Cmax ([2]; 50 mg) was 2.32 ng/mL. It also gave an AUC(0-t) ([2]; 1 Portia tablet) of 33.7 ng·h/mL.

In the case of `O=C1Nc2ccc(Cl)cc2[C@@](C#CC2CC2)(C(F)(F)F)O1` [Efavirenz, efavirenz], the “AUC0–72, ratio (test/reference) of adjusted geometric means (90% CI)” value (CYP2B6; [13]) is reported as 99.7 (95.2–104.4) %, the “AUClast, ratio (test/reference) of adjusted geometric means (90% CI)” value (from here on “AUClast, ratio (test/reference) … (90% CI)”) (CYP2B6; [13]) is reported as 99.7 (95.3–104.4) % and the “Cmax, ratio (test/reference) of adjusted geometric means (90% CI)” value (“Cmax, ratio (test/reference) … (90% CI)” for short) (CYP2B6; [13]) is reported as 88.2 (77.1–101.0) %. For the same compound, the “AUC0–72, ratio (test/reference) of adjusted geometric means (90% CI)” value (CYP2B6; [14]) was 99.7%, the “Cmax, ratio (test/reference) … (90% CI)” value (CYP2B6; [14]) was 88.2% and the “Effect of ritlecitinib on efavirenz AUC0–72 and Cmax (in words)” value (CYP2B6) was “similar”. The “Effect of ritlecitinib on efavirenz AUC0–72 and Cmax (in words)” value (CYP2B6; listed as efavirenz) was “did not produce clinically meaningful changes”.

With `Cc1ncc2n1-c1ccc(Cl)cc1C(c1ccccc1F)=NC2` [Midazolam, midazolam] the “AUCinf, ratio (test/reference) of adjusted geometric means (90% CI)” value (from here on “AUCinf, ratio (test/reference) … (90% CI)”) (CYP3A [3]; [15]) was 269.4 (216.1–335.9) %, the “AUClast, ratio (test/reference) … (90% CI)” value (CYP3A [3]; [15]) was 269.3 (215.8–336.1) % and the “Cmax, ratio (test/reference) … (90% CI)” value (CYP3A [3]; [15]) was 180.8 (148.1–220.6) %. The “AUCinf, ratio (test/reference) … (90% CI)” value (CYP3A [3]; [16]) was 269.4%, the “Cmax, ratio (test/reference) … (90% CI)” value (CYP3A [3]; [16]) was 180.8% and the “Fold increase of midazolam AUCinf in the presence of ritlecitinib” value (CYP3A [3]; ritlecitinib 200 mg QD) was 2.7 fold. For the same compound, the “Fold increase of midazolam Cmax in the presence of ritlecitinib” value (CYP3A [3]; ritlecitinib 200 mg QD) was 1.8 fold, the “Increase of midazolam AUCinf in the presence of ritlecitinib” value (CYP3A [3]; ritlecitinib 200 mg QD) was “≈ 169%” and the “Fold increase of midazolam AUCinf in the presence of ritlecitinib” value (CYP3A [3]; ritlecitinib 200 mg QD, listed as midazolam) was “≈ 2.7 fold”.

In the case of `Cn1c(=O)c2c(ncn2C)n(C)c1=O` [Caffeine, caffeine], the “AUCinf, adjusted geometric mean (reference)” value (CYP1A2 [4]; caffeine alone, plasma) is given as 15 660 ng h/mL, the “AUClast, adjusted geometric mean (reference)” value (CYP1A2 [4]; caffeine alone, plasma) is given as 14 780 ng h/mL and the “Cmax, adjusted geometric mean (reference)” value (CYP1A2 [4]; caffeine alone, plasma) is given as 2162 ng/mL. The “AUCinf, adjusted geometric mean (test)” value (CYP1A2 [4]; [17]) was 41 530 ng h/mL, the “AUClast, adjusted geometric mean (test)” value (CYP1A2 [4]; [17]) was 38 580 ng h/mL and the “Cmax, adjusted geometric mean (test)” value (CYP1A2 [4]; [17]) was 2372 ng/mL. The “AUClast, ratio (test/reference) … (90% CI)” value (CYP1A2 [4]; [18]) was 261.0 (232.5−293.1) %, the “Cmax, ratio (test/reference) … (90% CI)” value (CYP1A2 [4]; [18]) was 109.7 (103.9−115.9) % and the “AUCinf, ratio (test/reference) … (90% CI)” value (CYP1A2 [4]; [19]) was 265.1%. The “Cmax, ratio (test/reference) … (90% CI)” value (CYP1A2 [4]; [19]) was 109.7%, the “Fold increase of caffeine AUCinf by ritlecitinib” value (CYP1A2 [4]; ritlecitinib 200 mg QD) was “≈ 2.7 fold” and the “Fold increase of caffeine Cmax by ritlecitinib” value (CYP1A2 [4]; ritlecitinib 200 mg QD) was roughly 1.1 fold. For the same compound, the “Increase of caffeine AUCinf in the presence of ritlecitinib” value (CYP1A2 [4]; ritlecitinib 200 mg QD) was “≈ 165%” and the “Increase of caffeine Cmax in the presence of ritlecitinib” value (CYP1A2 [4]; ritlecitinib 200 mg QD) was “≈ 10%”.

Compound `C#C[C@]1(O)CC[C@H]2[C@@H]3CCc4cc(O)ccc4[C@H]3CC[C@@]21C` [EE, ethinyl oestradiol] has an AUC(0-inf) [1, 11] of 0.8 ng·h/mL, an AUC(0-inf) [1, 12] of 0.656 ng·h/mL and a Cmax [1, 12] of 0.0606 ng/mL. For the same compound, the “Decrease of AUCinf following coadministration of ritlecitinib” value [1, 20] was “≈ 18%”, the “Decrease of Cmax following coadministration of ritlecitinib” value [1, 20] was “≈ 12%” and the “Effect of ritlecitinib 200 mg QD on PK of OC steroid (in words)” value ([1]; ritlecitinib 200 mg QD) was “decreased”. It also gave an AUC(0-inf) ([2]; 50 mg) of 0.733 ng·h/mL, an AUC(0-t) ([2]; 50 mg) of 0.605 ng·h/mL and a Cmax ([2]; 50 mg) of 0.0638 ng/mL. The AUC(0-inf) ([2]; 1 Portia tablet) was 0.747 ng·h/mL, the AUC(0-t) ([2]; 1 Portia tablet) was 0.658 ng·h/mL and the “Effect of ritlecitinib 50 mg QD on PK of OC steroid (in words)” value [2] was “did not produce a clinically meaningful change”. The “Effect of ritlecitinib 50 mg QD on PK of OC steroid (in words)” value ([2]; listed as ethinyl oestradiol) was “no relevant change”.

In the case of `C=CC(=O)N1C[C@H](Nc2ncnc3[nH]ccc23)CC[C@@H]1C` [Ritlecitinib, ritlecitinib], the “Classification as clinical CYP1A2 inhibitor” value (CYP1A2 [5]) is reported as “moderate inhibitor”, the AUC(0-inf) (CYP3A [6]; human, plasma, oral, 30 mg) is reported as 268 ng·h/mL and the AUC(0-t) (CYP3A [6]; human, plasma, oral, 30 mg) is reported as 264 ng·h/mL. For the same compound, the Cmax (CYP3A [6]; human, plasma, oral, 30 mg) was 153 ng/mL, the “Effect of itraconazole on ritlecitinib Cmax (in words)” value (CYP3A [6]; [21]) was “similar” and the “Increase of ritlecitinib AUCinf with itraconazole” value (CYP3A [6]; [21]) was “≈ 15%”. For the same compound, the “AUCinf, ratio (test/reference) … (90% CI)” value (CYP3A [6]; [22]) was 115.1 (104.6–126.7) %, the “AUClast, ratio (test/reference) … (90% CI)” value (CYP3A [6]; [22]) was 115.1 (104.4–126.7) % and the “Cmax, ratio (test/reference) … (90% CI)” value (CYP3A [6]; [22]) was 102.5 (82.8–127.0) %. For the same compound, the “Decrease of ritlecitinib AUCinf with rifampicin” value (CYP; multiple rifampicin doses, ritlecitinib 50 mg) was “≈ 45%”, the “AUCinf, ratio (test/reference) … (90% CI)” value (CYP; [23]) was 55.8 (51.9–59.9) % and the “AUClast, ratio (test/reference) … (90% CI)” value (CYP; [23]) was 55.7 (51.9–59.7) %. The “Cmax, ratio (test/reference) … (90% CI)” value (CYP; [23]) was 75.1 (63.3–89.1) %, the “AUCinf, ratio (test/reference) … (90% CI)” value (CYP; [24]) was 55.8% and the “Cmax, ratio (test/reference) … (90% CI)” value (CYP; [24]) was 75.1%. For the same compound, the “Clinical relevance of exposure change with rifampicin (in words)” value (CYP; typical exposure range 0.5- to 2-fold of mean exposure) was “not decreased to clinically relevant levels”, the “Time-dependent inhibition of CYP3A in vitro (in words)” value (CYP3A4/5) was “time dependent inhibitor” and the “Time-dependent inhibition of CYP1A2 in vitro (in words)” value (CYP1A2 [7]) was “time dependent inhibitor”. For the same compound, the “Contribution of any single pathway to metabolism” value [8] was no more than 25%, the “Predicted collective contribution of CYPs to metabolic disposition” value [8] was “≈ 47%” and the “Predicted contribution of glutathione conjugation to metabolic disposition” value [8] was “≈ 24%”. The “Inhibition of OCT1 (in words)” value [9] was “inhibitor”, the “Half-life (t½) of ritlecitinib” value ([10]; quoted for the study design, ref previous studies) was less than 2 h and the “Dose proportionality of exposure (in words)” value ([10]; up to 200 mg) was “approximately dose‐proportionally”. For the same compound, the “Classification as clinical CYP3A inhibitor” value (CYP3A [3]; from midazolam DDI at ritlecitinib 200 mg QD) was “moderate inhibitor”.
